Source: patent publication US6399568B1, “Cyclic tetrapeptide derivatives and medicinal use thereof” (Japan Energy Corporation, priority 1997, dated 2002)
Non-standard residues stand in square brackets, D forms with d. Residues, ends and D or L forms follow the SMILES beside them. *: point of attachment. Asu = N[C@@H](CCCCCC(=O)O)C(=O)O; NHOH = ON*

Columns and labels:
Colon26 = assay: In vivo anti-cancer activity in mouse (ascites tumor system); settings: for Median Survival days (T/C %): Colon26 ascites, CDF1 mouse
Procedure: (§1) With respect to an ascites tumor system, in vivo anti-cancer activity of the cyclic tetrapeptide compounds according to the present invention was evaluated using cancer-carrying mouse. The cancer cells used were L1210, B16, Colon26and MH134. These cancer cells were cultured in a conventional manner and suspended in PBS, and 10^5 cells of L1210, or 10^6 cells of B16, Colon26 or MH134 were intraperitoneally transplanted into each mouse (100 μl/mouse). The mouse used was CDF1, BDF1, CDF1 or C3H/HeN (male, 7 weeks in age) for L1210, B16, Colon 26or MH134, respectively. Drug administration was started from the day next to the transplantation of cancer cells. For L1210, 0.5% carboxymethyl cellulose Na suspension and for other cancer cells, PBS solution (actually, as suspension neutralized with NaOH) were continuously administered everyday (100 μl/mouse). The period of administration was 4 days for L1210, 9 days for B16 and MH134, and 8 days for Colon26.
(§2) After the administration period passed, the mice administered were bred and median survival days were calculated on the basis of the number of days from the transplantation of cancer cells to death. The percent ratio (T/C%) between the median survival days (C) for a control group to which an equal amount of a drug-free solution was administered and the median survival days (T) of the treated group administered with the drug was determined.

L1210 = assay: as above; settings: for Median Survival days (T/C %): L1210 ascites, CDF1 mouse
Procedure: as §1, §2

MH134 = assay: as above; settings: for Median Survival days (T/C %): MH134 ascites, C3H/HeN mouse
Procedure: as §1, §2

B16 = assay: as above; settings: for Median Survival days (T/C %): B16 ascites, BDF1 mouse
Procedure: as §1, §2

[1] = biological target: Mouse histone deacetylase; format: biochemical; settings: enzyme from FM3A cells; [3H]acetyl histone; 37° C. 10 minutes
Procedure: In an enzyme system using a radio-labelled acetylated histone as a substrate, histone deacetylase enzyme inhibiting activity was evaluated. The basic conditions were in accordance with the method of Yoshida et al. (J. Biol. Chem., 265, 17174-17179, 1990).
Mouse histone deacetylase to be used was partially purified from FM3A cells. Cells were suspended in HDA buffer (15 mM potassium phosphate, 5% glycerol, 0.2 mM EDTA, pH 7.5), homogenized and centrifuged (35000×g, 10 min) to collect the nuclei which in turn were homogenized in the same buffer containing 1 M (NH4)2SO4. After ultrasonic disruption and centrifugation, the concentration of (NH4)2SO4 in the supernatant was increased to 3.5 M to precipitate deacetylase enzyme proteins. This precipitate was redissolved in HDA buffer, dialyzed against HDA buffer, applied to DEAE-cellulose column and eluted in NaCl gradient. Active fractions were used as a histone deacetylase enzyme solution.
As a substrate, [^3H]acetyl histone was used. In a culture solution of FM3A cells in the presence of 5 mM sodium n-butyrate, [^3H]acetate was added, followed by incubation for 30 minutes to radio-label the histone. The histone was prepared in a conventional manner and used as a substrate solution.
An assay was performed by adding a compound to be tested at a given concentration while using a no-addition control group, and by incubating the substrate solution and the enzyme solution at 37° C. for 10 minutes (reaction volume, 100 μl). The enzyme reaction was stopped by adding 10 μl of concentrated hydrochloric acid and the excised [^3H]acetate was extracted with ethyl acetate for radioactivity measurement. The inhibiting activity was expressed by a concentration at which the enzyme activity in the control group was inhibited by 50% (50% inhibiting concentration).

[2] = rat, in vivo, 10 mg/kg
Procedure: Under anesthesia with Ketamine/Kylazine mixture, SD rats were administered with HDA-31 into the tail vein (10 mg/kg; 2 ml/kg). The drug was dispersed in PBS and neutralized with NaOH and the resulting suspension was used. After administration, blood was taken from the carotid artery at a given interval of time (using heparin as an anti-coagulant) and centrifuged to prepare plasma. HDA-31 in the plasma was extracted with MTBE (methyl-t-butyl-ether) and separated by reverse-phase HPLC and a peak area corresponding to HDA-31 was quantitatively determined with a mass spectrometer.

[3] = system: mouse malignant melanoma B16 cell line; assay: Cell proliferation inhibition (72 hours); format: cell-based; settings: read-out: 50% proliferation inhibiting concentration B16 (nM) mean
Text: In order to verify the action of the cyclic tetrapeptide derivative according to the present invention in inhibiting cell proliferation in cancerized cells, the action on the proliferation of the aforementioned B16/BL6 cells was investigated. The evaluation of cell proliferation rates was done utilizing a commercially available measuring kit, specifically, from Promega under the trade name CellTiter 96 Aqueous Non-Radioactive Proliferation Assay Kit. In the measuring kit, the amount of products through reduction of a reagent tetrazolium compound (3-(4,5-dimethylthiazol-2-yl)-5-(3-carboxymethoxyphenyl)-2-(4-sulfophenyl)-2H-tetrazolium, inner salt; MTS) by viable animal cells is determined by detecting spectrophotometrically the color generated from the products. Since the amount of products is proportional to the amount of viable cells, this kit is utilized to evaluate the amount of viable cells.
According to the procedure of Test Example 1, B16/BL6 cells are inoculated in a 96 well microplate and cultured for 24 hours. Then, 10 μl of a solution of the source solution of a compound to be tested which has been diluted to a predetermined amount per well is added. Thereafter, culture is continued for additional 48 hours and 20 μl of a reagent solution in the aforementioned CellTiter 96 Aqueous Non-Radioactive Proliferation Assay Kit is then added. After incubation is continued at 37° C. for 1 hour, the amount of color generation is measured as an absorbance at 490 n musing a microplate reader.
The amount of cell proliferation of a group to which a compound to be tested is added is expressed in a relative value as compared to the standard cell proliferation (100%) in a control group to which no compound to be tested is added. For each compound tested, the amounts of cell proliferation were measured at different concentrations of addition and the dependence of the quantitative cell proliferation on the concentration of addition was investigated. From the results, a concentration of addition at which the amount of cell proliferation was inhibited by 50% relative to the amount of cell proliferation in the control group without addition was determined.
The test method was in accordance with the above-mentioned procedure, except that the period of incubation after the addition of a compound was 72 hours.
As illustrative examples, results are shown for an evaluation using mouse malignant melanoma B16/BL6 and B16 cell lines; leukemia L1210 cell line, colon cancer Colon26 cell line, and liver cancer MH134 cell line as cancer cells. For the cell proliferation inhibiting action of each compound tested for these cancer cells, 50% proliferation inhibiting concentrations are shown in Table 4.

[4] = 0.015 mg/mouse everyday for 9 days
[5] = 0.05 mg/mouse everyday for 9 days
[6] = 0.15 mg/mouse everyday for 9 days

CC[C@H](C)[C@@H]1NC(=O)[C@@H](Cc2ccc(OC)cc2)NC(=O)[C@H](CCCCCC(=O)NO)NC(=O)[C@H]2CCCN2C1=O [HDA-31, cyclo(-L-Asu(NHOH)-D-Tyr(Me)-L-Ile-D-Pro-)] (cyclo([Asu](NHOH)[dY](Me)I[dP]))
life-saving effect (Colon26; Colon26 ascites tumor): no life-saving effect was observed | Median Survival days (T/C %) (Colon26; 0.015 mg/mouse everyday for 8 days): 90.9% | Median Survival days (T/C %) (Colon26; 0.05 mg/mouse everyday for 8 days): 86.4% | Median Survival days (T/C %) (Colon26; 0.15 mg/mouse everyday for 8 days): 63.6% | life-saving effect (L1210; L1210 ascites tumor): obviously exhibited a life-saving effect | Median Survival days (T/C %) (L1210; 0.015 mg/mouse everyday for 4 days): 113% | Median Survival days (T/C %) (L1210; 0.15 mg/mouse everyday for 4 days): 125% | Median Survival days (T/C %) (L1210; 1.5 mg/mouse everyday for 4 days): 37.5% | life-saving effect (MH134; MH134 ascites tumor): no life-saving effect was observed | Median Survival days (T/C %) (MH134; [4]): 95.8% | Median Survival days (T/C %) (MH134; [5]): 85.4% | Median Survival days (T/C %) (MH134; [6]): 91.7% | life-saving effect (B16; B16 ascites tumor): obviously exhibited a life-saving effect | Median Survival days (T/C %) (B16; [4]): 117% | Median Survival days (T/C %) (B16; [5]): 119% | Median Survival days (T/C %) (B16; [6]): 139% | IC50 [1]: 2.08 nM | concentration in blood (plasma) after intravenous administration [2]: concentrations in blood exceeding the stated effective concentrations were maintained over a few hours | IC50 [3]: 44.2 nM
